Test results: article PMC10892497, “Discovery of Pyrano[2,3-c]pyrazole Derivatives as Novel Potential Human Coronavirus Inhibitors: Design, Synthesis, In Silico, In Vitro, and ADME Studies” (Pharmaceuticals, 2024)
Read-outs that look alike come from different tables or passages of the source.

How the values were obtained:
[1] = tested on: HCoV-229E; assay: Cytopathic inhibition assay (crystal violet); details: for IC50: cytopathic inhibition assay; for antiviral activity against HCoV-229E (in words): Vero-E6
[2] = MTT assay for cellular toxicity; details: African green monkey
[3] = tested on: HCoV-229E; assay: Mode of action using plaque assay (virucidal, adsorption, replication); assay type: cell-based, human coronavirus 229E; details: replication mechanism
[4] = target: T1, SARS-CoV2 protease enzyme (3CL protease, M^pro) (Severe acute respiratory syndrome coronavirus 2, UniProt P0DTD1); assay: Protease (SARS-CoV2) inhibition test, 3CL Protease Test Kit; assay type: biochemical
T1 construct: provided with 30 µL of diluted 3CL Protease enzyme solution (M^pro); purchased BPS Bioscience, San Diego, CA, USA #79955-1

[5] = Human coronavirus 229E, Vero C1008, HCoV-229E in Vero-E6 cells
[6] = Vero-E6 cells infected with HCoV-229E

Row | Compound | selectivity ratio [1] | IC50 ([1]; HCoV-229E in Vero-E6 cells) [µM] | antiviral activity against HCoV-229E (in words) [1] | IC50 [1, 5] [µM] | CC50 at 48 h [2] [µM] | melting point [°C] | reduction percentage, replication phase [3] [%] | IC50 [4] [µM] | selectivity ratio [1, 6]
1 | Cc1n[nH]c2c1C(c1cccs1)C1=C(NC(c3csnn3)c3c(C(F)(F)F)nn(C)c3OC1=N)O2 (stereo not drawn) [Compound 8] | 0.6 | 69.1 | did not | 86.2 | 45.3 | – | – | – | –
2 | Cc1n[nH]c2c1C(c1cccs1)C(C#N)=C(/N=C/[C@@H](O)[C@@H](O)[C@H](O)[C@H](O)CO)O2 (stereo partly drawn) [Compound 17] | 1.7 | – | minimal antiviral activity | 95.4 | 183 | > 300 | – | – | –
3 | Cc1n[nH]c2c1C(c1cccs1)c1c(N)ncnc1O2 (stereo not drawn) [Compound 2] | 2.4 | – | minimal antiviral activity | 309 | 749 | – | – | – | –
4 | Cc1n[nH]c2c1C(c1cccs1)c1c(ncn3nc(-c4nc[nH]n4)nc13)O2 (stereo not drawn) [Compound 13] | 0.46 | 88.8 | did not | 88.8 | 49.8 | – | – | – | –
5 | Cc1n[nH]c2c1C(c1cccs1)C(C#N)=C(/N=C/[C@@H](O)[C@H](O)[C@H](O)CO)O2 (stereo partly drawn) [Compound 15] | 1.18 | 123 | minimal antiviral activity | 123 | 146 | > 300 | – | – | –
6 | Cc1n[nH]c2c1C(c1cccs1)C(C#N)=C(/N=C/c1nncn1C)O2 (stereo not drawn) [Compound 4] | 0.9 | 70.1 | did not | 78.1 | 67.5 | – | – | – | –
7 | CCO/C=N/C1=C(C#N)C(c2cccs2)c2c(C)n[nH]c2O1 (stereo not drawn) [Compound 9] | 2.3 | 134 | minimal antiviral activity | 134 | 365 | – | – | – | –
8 | COP(=O)(OC)C1(c2csnn2)NC2=C(C1=O)C(c1cccs1)c1c(C)n[nH]c1O2 (stereo not drawn) [Compound 7, dimethyl(3-methyl-5-oxo-6-(1,2,3-thiadiazol-4-yl)-4-(thiophen-2-yl)-4,5,6,7-tetrahydro-1H-pyrrolo[3′,2′:5,6]pyrano[2,3-c]pyrazol-6-yl)phosphonate] | 4.3 | 25.8 | moderate efficacies | 35.8 | 190 | – | 60.7 | 772 | –
9 | Cc1n[nH]c2c1C(c1cccs1)C(C#N)=C(N1C(=O)CSC1c1nncn1C)O2 (stereo not drawn) [Compound 5] | 1.86 | – | minimal antiviral activity | 51.2 | 95.4 | – | – | – | –
10 | Cc1n[nH]c2c1C(c1cccs1)C(C#N)=C(/N=C/[C@H](O)[C@@H](O)[C@H](O)CO)O2 (stereo partly drawn) [Compound 14] | – | – | moderate efficacies | 78.7 | 507 | – | 55 | 180 | 6.5
11 | Cc1n[nH]c2c1C(c1cccs1)c1c(ncn(N)c1=N)O2 (stereo not drawn) [Compound 10] | 1.3 | – | minimal antiviral activity | – | 25.4 | – | – | – | –
12 | Cc1n[nH]c2c1C(c1cccs1)C(C#N)=C(/N=C/[C@H](O)[C@@H](O)[C@@H](O)[C@H](O)CO)O2 (stereo partly drawn) [Compound 18] | – | – | – | 44.9 | 567 | > 300 | 82.2 | 66.1 | 12.6
13 | Cc1n[nH]c2c1C(c1cccs1)c1c(ncn3[nH]c(=S)nc13)O2 (stereo not drawn) [Compound 11] | 1.7 | 10.9 | minimal antiviral activity | 16 | 19.7 | – | – | – | –
14 | CCC[C@@]1(CCc2ccccc2)CC(O)=C([C@H](CC)c2cccc(NS(=O)(=O)c3ccc(C(F)(F)F)cn3)c2)C(=O)O1 [tipranavir, reference compound] | – | – | – | – | – | – | – | 22.1 | –
15 | Cc1n[nH]c2c1C(c1cccs1)c1c(ncn3ncnc13)O2 (stereo not drawn) [Compound 12] | 3.5 | – | minimal antiviral activity | 18.6 | 66.6 | – | – | – | –
16 | Cc1n[nH]c2c1C(c1cccs1)C(C#N)=C(N1C(=O)C(Cl)C1c1nncn1C)O2 (stereo not drawn) [Compound 6] | – | 89.4 | moderate efficacies | 65.6 | 585 | – | 53.6 | 105 | 7.6
